One block for each compound: values may come before it.
Tests used:
[1] = tested on: synthetic neomycin-sensing riboswitch, 2FA-labeled (RNA, riboswitch, 2-fluoroadenine at 16, 17 and 24) GGCUGCUUGUCCUUUAAUGGUCCAGCC; experiment: 19F NMR titration; conditions: 303 K; saturating ligand; 215-1200 µM RNA, 1-1.5 equivalents ligand
[2] = tested on: synthetic neomycin-sensing riboswitch, 2FA-labeled (RNA, riboswitch, 2-fluoroadenine at 16, 17 and 24) GGCUGCUUGUCCUUUAAUGGUCCAGCC; experiment: ITC; conditions: 200 mM NaCl, 10 mM MgCl2, 20 mM Na-cacodylate, 1 mM spermidine, pH 6.8, 37 °C, one-site model

binding [1]: yes
Compound: NC[C@@H]1O[C@H](O[C@H]2[C@@H](O)[C@H](O[C@@H]3[C@@H](O)[C@H](N)C[C@H](N)[C@H]3O[C@H]3O[C@H](CN)[C@@H](O)[C@H](O)[C@H]3N)O[C@@H]2CO)[C@H](N)[C@@H](O)[C@@H]1O

KD ([2]; 30 µM RNA, 300 µM ligand): 5.7 ± 3.8 µM
Compound: NC[C@@H]1O[C@H](O[C@H]2[C@@H](O)[C@H](O[C@@H]3[C@@H](O)[C@H](N)C[C@H](N)[C@H]3O[C@H]3O[C@H](CO)[C@@H](O)[C@H](O)[C@H]3N)O[C@@H]2CO)[C@H](N)[C@@H](O)[C@@H]1O

KD ([2]; 10 µM RNA, 100 µM ligand): 0.356 ± 0.019 µM
Compound: NC[C@H]1O[C@H](O[C@H]2[C@H](O[C@@H]3O[C@H](CO)[C@@H](O)[C@H]3O)[C@@H](O)[C@H](N)C[C@@H]2N)[C@H](N)[C@@H](O)[C@@H]1O
